A short description of data set [1]: Rat telemetry protocol, core body temperature. In kind it is in vivo. Conditions: core body temperature of rats one hour post dosing, 100 μmol/kg p.o., relative to vehicle. The gist of the method: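 Male Sprague Dawley rats (225–250 g) with intraperitoneal telemetry transmitters, 2-week recovery. Single oral 100 μmol/kg dose in 10% EtOH/20% Tween-80/70% PEG-400; core body temperature recorded every 15 min over 24 h.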

The target in data set [2] is T1, CYP2C9 (Homo sapiens, UniProt P11712).
T1 construct: human liver microsomes (BD Gentest); tissue BD Gentest; host or cells: human liver microsomes
T1 sequence (P11712 whole entry): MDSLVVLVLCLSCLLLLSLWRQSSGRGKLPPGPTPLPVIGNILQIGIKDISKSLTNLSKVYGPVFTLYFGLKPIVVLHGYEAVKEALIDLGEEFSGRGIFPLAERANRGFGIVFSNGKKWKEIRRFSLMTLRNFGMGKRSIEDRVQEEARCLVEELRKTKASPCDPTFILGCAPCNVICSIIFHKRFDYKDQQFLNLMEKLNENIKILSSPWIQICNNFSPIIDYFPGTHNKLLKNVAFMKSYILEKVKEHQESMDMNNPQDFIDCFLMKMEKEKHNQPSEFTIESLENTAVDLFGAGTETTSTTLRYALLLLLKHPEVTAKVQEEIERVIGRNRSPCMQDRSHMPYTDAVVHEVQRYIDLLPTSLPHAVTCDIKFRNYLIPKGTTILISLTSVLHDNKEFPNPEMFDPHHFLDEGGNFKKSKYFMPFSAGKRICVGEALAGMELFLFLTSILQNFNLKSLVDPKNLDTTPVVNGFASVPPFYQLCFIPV
The experiment in a line: CYP2C9 inhibition assay. The data set is classed as in vitro ADME. The note with it: pH 7.4, probe Luciferin-H (100 μM final), human liver microsomes, substrate Luciferin-H, read-out: CYP2C9 % inh @ 2.2 μM. The gist of the method: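 Human liver microsomes (0.4 mg/mL) with NADPH-regenerating system in pH 7.4 phosphate, preincubated with compound 10 min at 37 °C. Luciferin-H (100 μM final) then added for 25 min at 37 °C, 1% DMSO. Luminescence read after Luciferin-H detection reagent; run in duplicate.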
For orientation: Liver microsomes are a subcellular fraction often used to study metabolism.

The target in data set [3] is T2, CYP2D6 (Homo sapiens, UniProt P10635).
T2 construct: human liver microsomes (BD Gentest); tissue BD Gentest; host or cells: human liver microsomes
T2 sequence (P10635 whole entry): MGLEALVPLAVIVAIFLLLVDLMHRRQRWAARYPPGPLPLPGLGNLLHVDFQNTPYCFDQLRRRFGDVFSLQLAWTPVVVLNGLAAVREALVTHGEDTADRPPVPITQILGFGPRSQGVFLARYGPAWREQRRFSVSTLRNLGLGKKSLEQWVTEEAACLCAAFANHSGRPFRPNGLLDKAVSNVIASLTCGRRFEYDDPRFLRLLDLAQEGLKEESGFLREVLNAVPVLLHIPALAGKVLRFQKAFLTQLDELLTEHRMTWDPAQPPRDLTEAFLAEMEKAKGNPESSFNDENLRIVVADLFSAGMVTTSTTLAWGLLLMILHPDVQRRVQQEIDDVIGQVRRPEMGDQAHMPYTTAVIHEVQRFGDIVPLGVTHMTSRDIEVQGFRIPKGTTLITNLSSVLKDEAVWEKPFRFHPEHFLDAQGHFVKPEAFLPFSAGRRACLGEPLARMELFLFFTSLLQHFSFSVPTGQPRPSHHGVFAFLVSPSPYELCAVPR
The experiment in a line: in vitro. The data set is classed as in vitro ADME. Conditions: human, microsomes, pH 7.4. As for the experimental part: Stock solutions of test compounds were assayed in 96-well format for their ability to inhibit CYP2C9, CYP2D6, or CYP3A4 mediated metabolism of test substrates. Luciferin-H was used as the substrate for CYP2C9; 3-[2-(N,N-diethyl-N-methylammonium)ethyl]-7-methoxy-4-methylcoumarin (AMMC) was used as the substrate for CYP2D6; 7-benzyloxyquiniline (BZQ) was used as the substrate for CYP3A4. For each subtype, positive controls (sulphaphenazole in the case of CYP2C9; quinidine in the case of CYP2D6, ketoconazole in the case of CYP3A4) were used to validate assay results run in duplicate.
Pre-Incubation Mixture Preparation for CYP2C9 and CYP2D6: A pre-incubation mixture was prepared by combining 100 mM phosphate buffer (9.12 mL; pH 7.4), human liver microsomes (BD Gentest, 240 itt; final concentration: 0.4 mg/mL), and 10 mM nicotinamide adenine dinucleotide phosphate in 65.4 mM MgCl2 hexahydrate (120 μL; final concentration: 125 μM and 818 μM, respectively). To this was mixture is added a ‘regeneration’ mixture (120 μL) of 333 mM glucose-6-phosphate and 40 U/mL glucose-6-phosphate dehydrogenase in 5 mM sodium citrate (final concentration: 4 mM, 0.5 U/mL, and 0.06 mM, respectively).
Substrate Mixture Preparation for CYP2D6: To a solution of 100 mM phosphate buffer, (2.80 mL, pH 7.4) was added 10 mM AMMC in acetonitrile (14 itt; final solution concentration 0.05 mM, final assay concentration 10 μM).
CYP2D6 Inhibiton Assay: To each well in the assay plate containing varying concentrations of test compound or control compound in DMSO (10 μL), Pre-Incubation Mixture (40 μL) was added to the wells and the assay plate was pre-incubated for 10 minutes at 37° C., with shaking or rocking. A pre-read of each well was performed at 390 nm and 460 nm extinction/emission. CYP2D6 Substrate Mixture (10 μL) was added to all wells and the assay plate was incubated for an additional […] at 37° C., with shaking or rocking. Final DMSO concentration was 1%. A post-read of each well was then performed at 390 nm and 460 nm extinction/emission.

A short description of data set [4]: Assessment of hemodynamic profile in anesthetized rat. In kind it is in vivo. Conditions: i.v. infusion 3, 10 and 30 mg/kg/30 minutes/dose, relative to vehicle control group. As to the method: Male Sprague-Dawley rats were anesthetized with Inactin, instrumented, and allowed to stabilize. Following a 30 minute baseline period, test compound was infused via intravenous administration at 3, 10, and 30 mg/kg/30 minutes/dose in a low volume PEG-400 vehicle (1 mL/kg) or 20:40:40 dimethylacetamide:propylene glycol:PEG-400 vehicle (1 mL/kg). A separate group of animals received infusion of vehicle alone. Mean arterial pressure (MAP) and heart rate (HR) were observed and recorded.

Take `Cc1cc2c(NC(=O)N[C@@H]3CCOc4c(OC(F)(F)F)cccc43)cccc2cn1` [Example 66, N-(3-methylisoquinolin-5-yl)-N′-[(4R)-8-(trifluoromethoxy)-3,4-dihydro-2H-chromen-4-yl]urea]: the “Δ Temp (° C.)” value in data set [1] was −0.9 °C. Moreover, the values for the inhibition at 25 min, 2.2 µM in data set [2] and in data set [3] were 4.5% and 9.5%, respectively. In addition, the “Change in MAP or HR ≧ 15% ?” value in data set [4] was “No (an observed increase or decrease of less than or equal to 15% in MAP (mean arterial pressure) or HR (heart rate) in the test group of animals relative to the vehicle control group is indicated as “No” in the table)”.
With `Cc1cc2c(NC(=O)N[C@@H]3CC(CF)(CF)Oc4c(F)cccc43)cccc2cn1` [Example 85, N-[(4R)-8-fluoro-2,2-bis(fluoromethyl)-3,4-dihydro-2H-chromen-4-yl]-N′-(3-methylisoquinolin-5-yl)urea], the “Δ Temp (° C.)” value in data set [1] is 0.2 °C. In addition, the inhibition at 25 min, 2.2 µM came out at 7.2% in data set [2] and 10% in data set [3]. In addition, in data set [4], the “Change in MAP or HR ≧ 15% ?” value is recorded as “No (an observed increase or decrease of less than or equal to 15% in MAP (mean arterial pressure) or HR (heart rate) in the test group of animals relative to the vehicle control group is indicated as “No” in the table)”.
As to `Cc1cc2c(NC(=O)N[C@@H]3C[C@](C)(CF)Oc4cc(Cl)ccc43)cccc2cn1` (single isomer, unassigned) [Example 121], in data set [1], the “Δ Temp (° C.)” value came to 0.0 °C. The figures for the inhibition at 25 min, 2.2 µM in data set [2] and in data set [3] were 15% and 8%, respectively. Also, in data set [4], the “Change in MAP or HR ≧ 15% ?” value is given as “Yes (An observed increase or decrease of greater than 15% in MAP (mean arterial pressure) or HR (heart rate) in one or more of the animals in the test group relative to the vehicle control group is indicated as “Yes” in the table)”.
`Cc1cc2c(NC(=O)N[C@@H]3C[C@@](C)(CF)Oc4cc(Cl)ccc43)cccc2cn1` (single isomer, unassigned) [Example 122]: the “Δ Temp (° C.)” value in data set [1] worked out at 0.0 °C. Further, the inhibition at 25 min, 2.2 µM in data set [2] came to 20%; in data set [3], 5%. Further, the “Change in MAP or HR ≧ 15% ?” value in data set [4] is “No (an observed increase or decrease of less than or equal to 15% in MAP (mean arterial pressure) or HR (heart rate) in the test group of animals relative to the vehicle control group is indicated as “No” in the table)”.
Turning to `Cc1cc2c(NC(=O)N[C@@H]3CC(C)(C)Oc4cc(Cl)ccc43)cccc2cn1` [Example 97, N-[(4R)-7-chloro-2,2-dimethyl-3,4-dihydro-2H-chromen-4-yl]-N′-(3-methylisoquinolin-5-yl)urea], in data set [1], the “Δ Temp (° C.)” value worked out at 0.4 °C. The values for the inhibition at 25 min, 2.2 µM in data set [2] and in data set [3] were 17% and 19%, respectively. Moreover, the “Change in MAP or HR ≧ 15% ?” value in data set [4] was “Yes (An observed increase or decrease of greater than 15% in MAP (mean arterial pressure) or HR (heart rate) in one or more of the animals in the test group relative to the vehicle control group is indicated as “Yes” in the table)”.
The corresponding values for `Cc1cc2c(NC(=O)N[C@@H]3CC(C)(C)Oc4cc(F)ccc43)cccc2cn1` [Example 95, N-[(4R)-7-fluoro-2,2-dimethyl-3,4-dihydro-2H-chromen-4-yl]-N′-(3-methylisoquinolin-5-yl)urea] are 0.0 °C, 0%, 3.5% and “Yes (An observed increase or decrease of greater than 15% in MAP (mean arterial pressure) or HR (heart rate) in one or more of the animals in the test group relative to the vehicle control group is indicated as “Yes” in the table)”.
For the molecule `Cc1cc2c(NC(=O)N[C@@H]3CC(CF)(CF)Oc4cc(F)ccc43)cccc2cn1` [Example 96, N-[(4R)-7-fluoro-2,2-bis(fluoromethyl)-3,4-dihydro-2H-chromen-4-yl]-N′-(3-methylisoquinolin-5-yl)urea], in data set [1], the “Δ Temp (° C.)” value stood at 0.0 °C. The inhibition at 25 min, 2.2 µM is 4.1% in data set [2] and 7.9% in data set [3]. For the same molecule, the “Change in MAP or HR ≧ 15% ?” value in data set [4] is reported as “Yes (An observed increase or decrease of greater than 15% in MAP (mean arterial pressure) or HR (heart rate) in one or more of the animals in the test group relative to the vehicle control group is indicated as “Yes” in the table)”.
`Cc1cc2c(NC(=O)N[C@@H]3CC(CF)(CF)Oc4ccc(F)cc43)cccc2cn1` [Example 65, N-[(4R)-6-fluoro-2,2-bis(fluoromethyl)-3,4-dihydro-2H-chromen-4-yl]-N′-(3-methylisoquinolin-5-yl)urea]: the “Δ Temp (° C.)” value in data set [1] turned out to be 0.0 °C. Moreover, the inhibition at 25 min, 2.2 µM was determined as 0% in data set [2] and 12% in data set [3]. In addition, the “Change in MAP or HR ≧ 15% ?” value in data set [4] is given as “No (an observed increase or decrease of less than or equal to 15% in MAP (mean arterial pressure) or HR (heart rate) in the test group of animals relative to the vehicle control group is indicated as “No” in the table)”.
As for `Cc1cc2c(NC(=O)N[C@@H]3CC(C)(C)Oc4cc(F)ccc43)c(F)ccc2cn1` [Example 123, N-[(4R)-7-fluoro-2,2-dimethyl-3,4-dihydro-2H-chromen-4-yl]-N′-(6-fluoro-3-methylisoquinolin-5-yl)urea], the “Δ Temp (° C.)” value in data set [1] turned out to be 0.0 °C. The inhibition at 25 min, 2.2 µM is 19% in data set [2] and 42% in data set [3]. In data set [4], the “Change in MAP or HR ≧ 15% ?” value is “No (an observed increase or decrease of less than or equal to 15% in MAP (mean arterial pressure) or HR (heart rate) in the test group of animals relative to the vehicle control group is indicated as “No” in the table)”.
`Cc1cc2c(NC(=O)N[C@@H]3C[C@@](C)(C(F)F)Oc4cc(Cl)ccc43)cccc2cn1` (single isomer, unassigned) [Example 124]: in data set [1], the “Δ Temp (° C.)” value is 0.0 °C. Besides, the inhibition at 25 min, 2.2 µM is 1.2% in data set [2] and 8.4% in data set [3]. Besides, the “Change in MAP or HR ≧ 15% ?” value in data set [4] is recorded as “No (an observed increase or decrease of less than or equal to 15% in MAP (mean arterial pressure) or HR (heart rate) in the test group of animals relative to the vehicle control group is indicated as “No” in the table)”.

The values above are taken from patent publication US8604053B2, “TRPV1 antagonists” (AbbVie Inc., priority 2008, dated 2013).
